Experimental data as given in patent US20250296959A1, “B7-H3 TARGETING PEPTIDES AND CONSTRUCTS THEREOF” (Mariana Oncology Inc., priority 2024, published 2025).
Starred links: 1 amine or outer side, 2 acyl side, 3 side chain; linkers in the order of their positions; H or OH if unused. Positions of bridges follow the written chain, without caps; N, C: chain ends. Non-standard residues stand in square brackets, D forms with d. Residues, ends and D or L forms follow the SMILES beside them. Groups on a side chain read outwards from the residue. *: point of attachment. Ala(piperidin-4-yl) = O=C([C@H](CC1CCN([*:3])CC1)N[*:1])[*:2]; DOTA = O=C(O)CN1CCN(CC(=O)O)CCN(CC(=O)*)CCN(CC(=O)O)CC1; X5 = O=C(O)CC1CCN(CC(=O)O)CCN(CC(=O)O)CCN(CC(=O)*)CC1; Phe(4-NHCONH2) = NC(=O)Nc1ccc(C[C@H](N)C(=O)O)cc1; Trp(5-F) = N[C@@H](Cc1c[nH]c2ccc(F)cc12)C(=O)O; X1 = C[C@@H](c1ccccc1)[C@H](N[*:1])C(=O)[*:2]; Lys(Me3) = C[N+](C)(C)CCCC[C@H](N)C(=O)O; Ala(4-THP) = N[C@@H](CC1CCOCC1)C(=O)O; Val(3-OH) = CC(C)(O)[C@H](N)C(=O)O; Chg = N[C@H](C(=O)O)C1CCCCC1; PEG4 = NCCOCCOCCOCCOCCC(=O)O; Tle = CC(C)(C)[C@H](N)C(=O)O; hLeu = CC(C)CC[C@H](N)C(=O)O; Nle = CCCC[C@H](N)C(=O)O; Orn = NCCC[C@H](N)C(=O)O; Nva = CCC[C@H](N)C(=O)O

Target: T1, human 4lg B7-H3 (Homo sapiens, UniProt Q5ZPR3)
T1 sequence (Q5ZPR3 29-534): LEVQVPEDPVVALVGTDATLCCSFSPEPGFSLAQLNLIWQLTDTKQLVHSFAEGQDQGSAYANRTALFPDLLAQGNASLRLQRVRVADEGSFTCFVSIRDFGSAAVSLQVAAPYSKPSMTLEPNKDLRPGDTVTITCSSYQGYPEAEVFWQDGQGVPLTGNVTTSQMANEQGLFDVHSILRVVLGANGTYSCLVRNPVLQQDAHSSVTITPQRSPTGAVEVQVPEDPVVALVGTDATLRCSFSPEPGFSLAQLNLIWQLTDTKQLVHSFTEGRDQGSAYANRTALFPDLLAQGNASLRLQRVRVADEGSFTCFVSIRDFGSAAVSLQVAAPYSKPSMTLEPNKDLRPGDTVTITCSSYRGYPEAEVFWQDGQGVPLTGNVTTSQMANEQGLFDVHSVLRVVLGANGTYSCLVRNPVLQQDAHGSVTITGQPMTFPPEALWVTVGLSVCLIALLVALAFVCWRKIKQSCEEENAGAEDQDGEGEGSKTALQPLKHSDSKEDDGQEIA
Test: Affinity determination by surface plasmon resonance (SPR) to 4Ig B7-H3
Conditions: SPR KD—25° C., 4Ig B7-H3; 25° C. flow cell temperature

Structure (SMILES) | Kd
CCCC[C@H](NC(=O)[C@H](Cc1c[nH]c2ccc(F)cc12)NC(=O)[C@@H]1CSSC[C@H](NC(=O)[C@H](Cc2ccc(O)cc2)NC(=O)[C@H](CCC(C)C)NC(C)=O)C(=O)N[C@@H](C(C)(C)C)C(=O)NCC(=O)N[C@@H](CCCCN)C(=O)N[C@@H](CC2CCOCC2)C(=O)N[C@@H](CC(=O)O)C(=O)N[C@@H](C(C)C)C(=O)N[C@@H](Cc2ccc(O)cc2)C(=O)N1)C(=O)N[C@H](C(=O)N[C@H](CCCCNC(=O)CN1CCN(CC(=O)O)CCN(CC(=O)O)CCN(CC(=O)O)CC1)C(=O)O)[C@@H](C)O [compound 333, Ac-hLeu-Y-C-Tbg-G-K-ThpA-D-V-Y-C-5FW-Nle-Thr-dLys(DOTA)-COOH] (Ac-[hLeu]YC[Tle]GK[Ala(4-THP)]DVYC[Trp(5-F)][Nle]T[dK](DOTA)-OH; disulfide 3-11) | 10 to 100 nM
CC(=O)N[C@@H](CCC(C)C)C(=O)N[C@@H](Cc1ccc(O)cc1)C(=O)N[C@H]1CSSC[C@@H](C(=O)N[C@@H](Cc2c[nH]c3ccccc23)C(=O)N[C@@H](Cc2ccccc2)C(=O)N[C@H](C(=O)N[C@H](CCCCNC(=O)CN2CCN(CC(=O)O)CCN(CC(=O)O)CCN(CC(=O)O)CC2)C(N)=O)[C@@H](C)O)NC(=O)[C@H](Cc2ccc(O)cc2)NC(=O)[C@H](C2CCCCC2)NC(=O)[C@H](CC(=O)O)NC(=O)[C@H](Cc2ccc(O)cc2)NC(=O)[C@H](CCCN)NC(=O)CNC(=O)[C@H](C(C)(C)C)NC1=O [compound 138, Ac-hLeu-Y-C-Tbg-G-Orn-Y-D-Chg-Y-C-W-F-Thr-dLys(DOTA)-CONH2] (Ac-[hLeu]YC[Tle]G[Orn]YD[Chg]YCWFT[dK](DOTA)-NH2; disulfide 3-11) | 1 to 10 nM
CCCC[C@H](NC(C)=O)C(=O)N[C@@H](Cc1ccc(O)cc1)C(=O)N[C@H]1CSSC[C@@H](C(=O)N[C@@H](Cc2c[nH]c3ccccc23)C(=O)N[C@@H](Cc2ccccc2)C(=O)N[C@H](C(=O)N[C@H](CCCCNC(=O)CN2CCC(CC(=O)O)CCN(CC(=O)O)CCN(CC(=O)O)CC2)C(N)=O)[C@@H](C)O)NC(=O)[C@H](Cc2ccc(O)cc2)NC(=O)[C@H](C(C)C)NC(=O)[C@H](CC(=O)O)NC(=O)[C@H](Cc2ccc(O)cc2)NC(=O)[C@H](CCCCN)NC(=O)CNC(=O)[C@H](C(C)C)NC1=O (stereo partly drawn) [Cpd #27, Ac-Nle-Y-C-V-G-K-Y-D-V-Y-C-W-F-Thr-dLys(DOTA)-CONH2] (Ac-[Nle]YCVGKYDVYCWFT[dK](X5)-NH2; disulfide 3-11) | 1 to 10 nM
CCC[C@@H]1NC(=O)[C@H](CC(=O)O)NC(=O)[C@H](Cc2ccc(O)cc2)NC(=O)[C@H](CCCCN)NC(=O)CNC(=O)[C@H](C(C)C)NC(=O)[C@@H](NC(=O)[C@H](Cc2ccc(O)cc2)NC(=O)[C@H](CCC(C)C)NC(C)=O)CSSC[C@@H](C(=O)N[C@@H](Cc2c[nH]c3ccc(F)cc23)C(=O)N[C@@H](Cc2ccccc2)C(=O)N[C@H](C(=O)N[C@H](CCCCNC(=O)CN2CCN(CC(=O)O)CCN(CC(=O)O)CCN(CC(=O)O)CC2)C(N)=O)[C@@H](C)O)NC(=O)[C@H](Cc2ccc(O)cc2)NC1=O [compound 185, Ac-hLeu-Y-C-V-G-K-Y-D-Nva-Y-C-5FW-F-Thr-dLys(DOTA)-CONH2] (Ac-[hLeu]YCVGKYD[Nva]YC[Trp(5-F)]FT[dK](DOTA)-NH2; disulfide 3-11) | 1 to 10 nM

Same assay, conditions: SPR KD—37° C., 4Ig B7-H3; 37° C. flow cell temperature

Structure (SMILES) | Kd
CC(=O)N[C@@H](CCC(C)C)C(=O)N[C@@H](Cc1ccc(O)cc1)C(=O)N[C@H]1CSSC[C@@H](C(=O)N[C@@H](Cc2c[nH]c3ccc(F)cc23)C(=O)N[C@H](C(=O)N[C@H](C(=O)N[C@H](CCCCNC(=O)CN2CCN(CC(=O)O)CCN(CC(=O)O)CCN(CC(=O)O)CC2)C(=O)O)C(C)(C)O)[C@@H](C)c2ccccc2)NC(=O)[C@H](Cc2ccc(NC(N)=O)cc2)NC(=O)[C@H](C(C)C)NC(=O)[C@H](CC(=O)O)NC(=O)[C@H](CC2CCOCC2)NC(=O)[C@H](CC2CCNCC2)NC(=O)CNC(=O)[C@H](C(C)(C)C)NC1=O [compound 506, Ac-hLeu-Y-C-Tbg-G-PipAla-ThpA-D-V-Aph(Cbm)-C-5FW-[(2S, 3S)beta-Me-Phe]-hydroxyVal-dLys(DOTA)-COOH] (Ac-[hLeu]YC[Tle]G[Ala(piperidin-4-yl)][Ala(4-THP)]DV[Phe(4-NHCONH2)]C[Trp(5-F)][X1][Val(3-OH)][dK](DOTA)-OH; disulfide 3-11) | < 1 nM
CC(=O)N[C@@H](CCC(C)C)C(=O)N[C@@H](Cc1ccc(O)cc1)C(=O)N[C@H]1CSSC[C@@H](C(=O)N[C@@H](Cc2c[nH]c3ccc(F)cc23)C(=O)N[C@H](C(=O)N[C@H](C(=O)N[C@H](C)C(=O)O)C(C)(C)O)[C@@H](C)c2ccccc2)NC(=O)[C@H](Cc2ccc(O)cc2)NC(=O)[C@H](C(C)C)NC(=O)[C@H](CC(=O)O)NC(=O)[C@H](CC2CCN(C(=O)CCOCCOCCOCCOCCNC(=O)CN3CCN(CC(=O)O)CCN(CC(=O)O)CCN(CC(=O)O)CC3)CC2)NC(=O)[C@H](CCCC[N+](C)(C)C)NC(=O)CNC(=O)[C@H](C(C)(C)C)NC1=O [compound 522, Ac-hLeu-Y-C-Tbg-G-Lys(Me)3-Pip(PEG4-DOTA)Ala-D-V-Y-C-5FW-[(2S, 3S)beta-Me-Phe]-hydroxyVal-dAla-COOH] (Ac-[hLeu]YC[Tle]G[Lys(Me3)][Ala(piperidin-4-yl)]([PEG4-DOTA])DVYC[Trp(5-F)][X1][Val(3-OH)][dA]-OH; disulfide 3-11) | < 1 nM
CCCC[C@H](NC(C)=O)C(=O)N[C@@H](Cc1ccc(O)cc1)C(=O)N[C@H]1CSSC[C@@H](C(=O)N[C@@H](Cc2c[nH]c3ccccc23)C(=O)N[C@@H](Cc2ccccc2)C(=O)N[C@H](C(=O)N[C@H](CCCCNC(=O)CN2CCC(CC(=O)O)CCN(CC(=O)O)CCN(CC(=O)O)CC2)C(N)=O)[C@@H](C)O)NC(=O)[C@H](Cc2ccc(O)cc2)NC(=O)[C@H](C(C)C)NC(=O)[C@H](CC(=O)O)NC(=O)[C@H](Cc2ccc(O)cc2)NC(=O)[C@H](CCCCN)NC(=O)CNC(=O)[C@H](C(C)C)NC1=O (stereo partly drawn) [Cpd #27, Ac-Nle-Y-C-V-G-K-Y-D-V-Y-C-W-F-Thr-dLys(DOTA)-CONH2] (Ac-[Nle]YCVGKYDVYCWFT[dK](X5)-NH2; disulfide 3-11) | 1 to 10 nM
